Reference: publication PMC6364417, “Kinase inhibitor library screening identifies synergistic drug combinations effective in sensitive and resistant melanoma cells” (Journal of Experimental & Clinical Cancer Research : CR, 2019)

Legend:
Assay in all cases: Kinase inhibitor library screening, PrestoBlue cell viability, 1 or 10 μM, 72 h
[1] = system: A375 cells (parental); conditions: A375 Parental
[2] = system: A375-GP cells (Dabrafenib-resistant); conditions: A375 GP
[3] = system: 501Mel cells (parental); conditions: 501Mel Parental
How it was run: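 Parental cells and Vemurafenib-resistant (XP) or Dabrafenib-resistant (GP) derivatives were treated with library kinase inhibitors at 1 and 10 μM for 72 h. Viability measured by PrestoBlue and expressed as % of untreated cells, at least in duplicate.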

[4] = system: IGR37 cells (parental); conditions: IGR37 Parental
[5] = system: 501Mel-GP cells (Dabrafenib-resistant); conditions: 501Mel GP
[6] = system: A375-XP cells (Vemurafenib-resistant); conditions: A375 XP
[7] = system: IGR37-XP cells (Vemurafenib-resistant); conditions: IGR37 XP
[8] = system: IGR37-GP cells (Dabrafenib-resistant); conditions: IGR37 GP
[9] = system: 501Mel-XP cells (Vemurafenib-resistant); conditions: 501Mel XP

Row | Structure (SMILES) | cell viability (kinase inhibitor library screening) ([1]; 10μΜ, 72 h) [%] | cell viability (kinase inhibitor library screening) ([1]; 1μΜ, 72 h) [%] | cell viability (kinase inhibitor library screening) ([2]; 1μΜ, 72 h) [%] | cell viability (kinase inhibitor library screening) ([2]; 10μΜ, 72 h) [%] | cell viability (kinase inhibitor library screening) ([3]; 1μΜ, 72 h) [%] | cell viability (kinase inhibitor library screening) ([3]; 10μΜ, 72 h) [%] | cell viability (kinase inhibitor library screening) ([4]; 1μΜ, 72 h) [%] | cell viability (kinase inhibitor library screening) ([4]; 10μΜ, 72 h) [%] | cell viability (kinase inhibitor library screening) ([5]; 1μΜ, 72 h) [%] | cell viability (kinase inhibitor library screening) ([5]; 10μΜ, 72 h) [%] | cell viability (kinase inhibitor library screening) ([6]; 1μΜ, 72 h) [%] | cell viability (kinase inhibitor library screening) ([6]; 10μΜ, 72 h) [%] | cell viability (kinase inhibitor library screening) ([7]; 1μΜ, 72 h) [%] | cell viability (kinase inhibitor library screening) ([7]; 10μΜ, 72 h) [%] | cell viability (kinase inhibitor library screening) ([8]; 1μΜ, 72 h) [%] | cell viability (kinase inhibitor library screening) ([8]; 10μΜ, 72 h) [%] | cell viability (kinase inhibitor library screening) ([9]; 1μΜ, 72 h) [%] | cell viability (kinase inhibitor library screening) ([9]; 10μΜ, 72 h) [%] | also measured
1 | CC(C)(C)c1cc(/C=C(\C#N)C(N)=S)cc(C(C)(C)C)c1O [Tyrphostin AG 879 (AG 879)] | – | – | – | – | – | – | – | – | – | – | – | – | – | – | – | – | – | – | cell viability, A375 Parental, 1μΜ ([1]; 1μΜ, 72 h, in %): 103.1; cell viability, A375 Parental, 10μΜ ([1]; 10μΜ, 72 h, in %): 21.0; cell viability, A375 GP, 10μΜ ([2]; 10μΜ, 72 h, in %): 19.7; cell viability, 501Mel Parental, 1μΜ ([3]; 1μΜ, 72 h, in %): 115.0; cell viability, 501Mel Parental, 10μΜ ([3]; 10μΜ, 72 h, in %): 44.8; cell viability, IGR37 Parental, 10μΜ ([4]; 10μΜ, 72 h, in %): 83.4; cell viability, 501Mel GP, 1μΜ ([5]; 1μΜ, 72 h, in %): 110.4; cell viability, 501Mel GP, 10μΜ ([5]; 10μΜ, 72 h, in %): 23.6; cell viability, A375 XP, 1μΜ ([6]; 1μΜ, 72 h, in %): 105.8; cell viability, A375 XP, 10μΜ ([6]; 10μΜ, 72 h, in %): 24.1; cell viability, IGR37 XP, 10μΜ ([7]; 10μΜ, 72 h): 21.5%; cell viability, IGR37 XP, 1μΜ ([7]; 1μΜ, 72 h, in %): 90.9; cell viability, IGR37 GP, 10μΜ ([8]; 10μΜ, 72 h): 60.1%; cell viability, 501Mel XP, 1μΜ ([9]; 1μΜ, 72 h, in %): 98.6; cell viability, 501Mel XP, 10μΜ ([9]; 10μΜ, 72 h, in %): 18.3
2 | CNC(=O)c1cc(Oc2ccc(NC(=O)Nc3ccc(Cl)c(C(F)(F)F)c3)cc2)ccn1 [Sorafenib (Nexavar)] | – | – | – | – | – | – | – | – | – | – | – | – | – | – | – | – | – | – | cell viability (kinase inhibitor library screening) ([1]; 10μΜ, in %): 44.5; cell viability (kinase inhibitor library screening) ([2]; 1μΜ, in %): 80.9; cell viability (kinase inhibitor library screening) ([2]; 10μΜ, in %): 22.0; cell viability (kinase inhibitor library screening) ([3]; 1μΜ, in %): 97.8; cell viability (kinase inhibitor library screening) ([3]; 10μΜ, in %): 53.0; cell viability (kinase inhibitor library screening) ([4]; 1μΜ, in %): 96.8; cell viability (kinase inhibitor library screening) ([4]; 10μΜ, in %): 60.6; cell viability (kinase inhibitor library screening) ([5]; 1μΜ, in %): 104.7; cell viability (kinase inhibitor library screening) ([6]; 1μΜ, in %): 95.0; cell viability (kinase inhibitor library screening) ([6]; 10μΜ, in %): 16.4; cell viability (kinase inhibitor library screening) ([7]; 1μΜ, in %): 106.1; cell viability (kinase inhibitor library screening) ([7]; 10μΜ, in %): 16.7; cell viability (kinase inhibitor library screening) ([8]; 1μΜ, in %): 102.7; cell viability (kinase inhibitor library screening) ([8]; 10μΜ, in %): 41.3; cell viability (kinase inhibitor library screening) ([9]; 1μΜ, in %): 96.9; cell viability (kinase inhibitor library screening) ([9]; 10μΜ, in %): 23.2
3 | Cc1[nH]c(/C=C2\C(=O)Nc3ccc(S(=O)(=O)N(C)c4cccc(Cl)c4)cc32)c(C)c1C(=O)N1CCN(C)CC1 [SU11274] | 65.8 | 112.5 | 104.3 | 46.3 | 107.1 | 12.1 | 117.2 | 13.1 | 111.1 | 33.6 | 111.1 | 22.4 | 105.9 | 19.7 | 103.1 | 37.8 | 92.2 | 0.0577 | –
4 | O=C(O)[C@]1(Cc2cccc(Nc3nccs3)n2)CC[C@@H](Oc2cccc(Cl)c2F)CC1 [MK-5108 (VX-689)] | 56.1 | 91.4 | 92.6 | 63.9 | 94.9 | 74.6 | 98.6 | 94.9 | 83.4 | 63.6 | 99.5 | 68.2 | 100.4 | 80.0 | – | 93.5 | 72.1 | 52.0 | –
5 | O=C(Nc1cccc(Cl)c1)Nc1ncc(CCNc2ncnc3ccsc23)s1 [SNS-314] | 46.0 | 47.7 | 47.1 | 46.9 | 79.7 | 75.7 | 81.9 | 57.7 | 79.1 | 58.4 | 56.7 | 55.3 | 88.3 | 20.8 | 93.6 | 58.8 | 72.3 | 46.6 | –
6 | Cc1cnc(Nc2ccc(OCCN3CCCC3)cc2)nc1Nc1cccc(S(=O)(=O)NC(C)(C)C)c1 [TG101348 (SAR302503)] | – | – | – | – | – | – | – | – | – | – | – | – | – | – | – | – | – | – | cell viability, A375 Parental, 1μΜ ([1]; 1μΜ, 72 h, in %): 100.2; cell viability, A375 Parental, 10μΜ ([1]; 10μΜ, 72 h, in %): 12.9; cell viability, A375 GP, 1μΜ ([2]; 1μΜ, 72 h, in %): 89.1; cell viability, A375 GP, 10μΜ ([2]; 10μΜ, 72 h, in %): 15.0; cell viability, 501Mel Parental, 1μΜ ([3]; 1μΜ, 72 h, in %): 98.7; cell viability, 501Mel Parental, 10μΜ ([3]; 10μΜ, 72 h, in %): 1.4; cell viability, IGR37 Parental, 1μΜ ([4]; 1μΜ, 72 h, in %): 98.0; cell viability, IGR37 Parental, 10μΜ ([4]; 10μΜ, 72 h, in %): 21.1; cell viability, 501Mel GP, 10μΜ ([5]; 10μΜ, 72 h, in %): 1.0; cell viability, A375 XP, 1μΜ ([6]; 1μΜ, 72 h, in %): 99.7; cell viability, A375 XP, 10μΜ ([6]; 10μΜ, 72 h, in %): 17.0; cell viability, IGR37 XP, 10μΜ ([7]; 10μΜ, 72 h): 2%; cell viability, IGR37 XP, 1μΜ ([7]; 1μΜ, 72 h, in %): 94.2; cell viability, IGR37 GP, 10μΜ ([8]; 10μΜ, 72 h): 6.2%; cell viability, IGR37 GP, 1μΜ ([8]; 1μΜ, 72 h, in %): 95.7; cell viability, 501Mel XP, 1μΜ ([9]; 1μΜ, 72 h, in %): 89.8; cell viability, 501Mel XP, 10μΜ ([9]; 10μΜ, 72 h, in %): -0.1
7 | C[C@@H]1CN(CC(=O)Nc2ccc3c(c2)Cc2cccc(-c4cc(=O)cc(N5CCOCC5)o4)c2S3)C[C@H](C)O1 [KU-60019] | 78.4 | – | 100.5 | 68.6 | 90.0 | 71.5 | – | 97.6 | 103.1 | 54.1 | – | 74.4 | – | 34.1 | 92.9 | – | 91.4 | 36.5 | –
